{
  "source": "ChEMBL document CHEMBL1201862",
  "about": "“PubChem BioAssay data set” (2004)",
  "key": {"[1]": {"target": "Beta-2 adrenergic receptor (Homo sapiens, UniProt P07550)", "sequence (P07550 whole entry)": "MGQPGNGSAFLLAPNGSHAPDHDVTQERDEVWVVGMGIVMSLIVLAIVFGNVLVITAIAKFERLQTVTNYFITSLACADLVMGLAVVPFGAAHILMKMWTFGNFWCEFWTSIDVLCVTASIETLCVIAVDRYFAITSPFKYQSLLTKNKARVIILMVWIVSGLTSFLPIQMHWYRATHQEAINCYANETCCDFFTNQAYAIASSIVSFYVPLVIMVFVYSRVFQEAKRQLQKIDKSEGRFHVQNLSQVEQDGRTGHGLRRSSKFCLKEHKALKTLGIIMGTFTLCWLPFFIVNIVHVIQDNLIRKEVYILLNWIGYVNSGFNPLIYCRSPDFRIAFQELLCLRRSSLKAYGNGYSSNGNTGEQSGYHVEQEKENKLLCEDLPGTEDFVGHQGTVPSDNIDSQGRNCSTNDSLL", "assay": "ADRB2 activation measured by internalization – cell-based, FAP fluorogen, flow cytometry, cherry pick 1, dose response (AID 588763)", "type": "functional"}, "Streptokinase A": {"target": "T1, Streptokinase A (Streptococcus pyogenes serotype M1, UniProt P10520)", "T1 sequence (P10520 whole entry)": "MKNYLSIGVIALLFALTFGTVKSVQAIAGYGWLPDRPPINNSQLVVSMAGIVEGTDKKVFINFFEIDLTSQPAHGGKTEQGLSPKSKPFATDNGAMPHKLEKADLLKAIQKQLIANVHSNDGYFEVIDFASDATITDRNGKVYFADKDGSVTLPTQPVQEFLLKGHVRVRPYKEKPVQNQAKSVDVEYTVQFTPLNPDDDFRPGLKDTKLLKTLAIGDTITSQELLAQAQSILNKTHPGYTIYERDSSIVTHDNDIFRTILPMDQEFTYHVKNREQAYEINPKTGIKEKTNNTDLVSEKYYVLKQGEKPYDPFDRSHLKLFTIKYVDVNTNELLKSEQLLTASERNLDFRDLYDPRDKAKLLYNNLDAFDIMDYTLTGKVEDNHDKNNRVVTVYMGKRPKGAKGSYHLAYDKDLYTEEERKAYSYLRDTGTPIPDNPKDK", "assay": "viability-normalized secreted streptokinase activity reduction – plasminogen activation absorbance, OD405, dose response (AID 1914);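 note: secreted streptokinase activity via plasminogen activation per viability signal from cell pellet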", "type": "functional, Streptococcus pyogenes M1 GAS"}, "Vero": {"test_system": "Vero", "assay": "viability of Vero cells under compound – cytotoxicity control for flavivirus capping enzyme inhibitors (AID 588742)", "type": "functional", "details": "Chlorocebus sabaeus"}, "[2]": {"target": "T2, Replicative DNA helicase DnaB (Mycobacterium tuberculosis, UniProt P9WMR3)", "T2 sequence (P9WMR3 whole entry)": "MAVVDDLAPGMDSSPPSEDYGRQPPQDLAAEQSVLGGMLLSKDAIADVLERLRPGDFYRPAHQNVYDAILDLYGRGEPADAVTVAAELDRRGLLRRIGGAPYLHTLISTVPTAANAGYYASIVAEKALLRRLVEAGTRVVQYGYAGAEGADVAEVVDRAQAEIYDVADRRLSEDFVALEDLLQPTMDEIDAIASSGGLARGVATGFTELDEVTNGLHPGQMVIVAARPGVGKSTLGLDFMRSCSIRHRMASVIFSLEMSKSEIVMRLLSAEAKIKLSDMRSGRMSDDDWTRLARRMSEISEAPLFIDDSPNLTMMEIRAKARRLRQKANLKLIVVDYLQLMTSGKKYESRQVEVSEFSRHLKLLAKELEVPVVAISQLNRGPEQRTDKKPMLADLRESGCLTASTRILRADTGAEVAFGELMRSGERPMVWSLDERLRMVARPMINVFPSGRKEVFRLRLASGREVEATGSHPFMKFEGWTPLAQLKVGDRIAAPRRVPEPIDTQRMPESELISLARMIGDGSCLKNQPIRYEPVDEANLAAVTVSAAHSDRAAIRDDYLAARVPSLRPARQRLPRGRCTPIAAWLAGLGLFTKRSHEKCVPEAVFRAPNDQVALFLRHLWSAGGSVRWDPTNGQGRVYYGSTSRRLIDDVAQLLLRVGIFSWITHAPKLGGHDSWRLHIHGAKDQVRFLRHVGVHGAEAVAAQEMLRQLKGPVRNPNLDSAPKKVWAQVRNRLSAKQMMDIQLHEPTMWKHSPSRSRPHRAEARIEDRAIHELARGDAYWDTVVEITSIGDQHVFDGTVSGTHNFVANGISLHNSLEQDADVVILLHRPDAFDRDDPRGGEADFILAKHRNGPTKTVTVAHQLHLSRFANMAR", "assay": "DnaB intein splicing inhibitors, dose response, biochemical, cell-free fluorescence (AID 449749)", "type": "functional"}, "[3]": {"target": "Apoptotic protease-activating factor 1 (Homo sapiens, UniProt O14727)", "sequence (O14727 whole entry)": "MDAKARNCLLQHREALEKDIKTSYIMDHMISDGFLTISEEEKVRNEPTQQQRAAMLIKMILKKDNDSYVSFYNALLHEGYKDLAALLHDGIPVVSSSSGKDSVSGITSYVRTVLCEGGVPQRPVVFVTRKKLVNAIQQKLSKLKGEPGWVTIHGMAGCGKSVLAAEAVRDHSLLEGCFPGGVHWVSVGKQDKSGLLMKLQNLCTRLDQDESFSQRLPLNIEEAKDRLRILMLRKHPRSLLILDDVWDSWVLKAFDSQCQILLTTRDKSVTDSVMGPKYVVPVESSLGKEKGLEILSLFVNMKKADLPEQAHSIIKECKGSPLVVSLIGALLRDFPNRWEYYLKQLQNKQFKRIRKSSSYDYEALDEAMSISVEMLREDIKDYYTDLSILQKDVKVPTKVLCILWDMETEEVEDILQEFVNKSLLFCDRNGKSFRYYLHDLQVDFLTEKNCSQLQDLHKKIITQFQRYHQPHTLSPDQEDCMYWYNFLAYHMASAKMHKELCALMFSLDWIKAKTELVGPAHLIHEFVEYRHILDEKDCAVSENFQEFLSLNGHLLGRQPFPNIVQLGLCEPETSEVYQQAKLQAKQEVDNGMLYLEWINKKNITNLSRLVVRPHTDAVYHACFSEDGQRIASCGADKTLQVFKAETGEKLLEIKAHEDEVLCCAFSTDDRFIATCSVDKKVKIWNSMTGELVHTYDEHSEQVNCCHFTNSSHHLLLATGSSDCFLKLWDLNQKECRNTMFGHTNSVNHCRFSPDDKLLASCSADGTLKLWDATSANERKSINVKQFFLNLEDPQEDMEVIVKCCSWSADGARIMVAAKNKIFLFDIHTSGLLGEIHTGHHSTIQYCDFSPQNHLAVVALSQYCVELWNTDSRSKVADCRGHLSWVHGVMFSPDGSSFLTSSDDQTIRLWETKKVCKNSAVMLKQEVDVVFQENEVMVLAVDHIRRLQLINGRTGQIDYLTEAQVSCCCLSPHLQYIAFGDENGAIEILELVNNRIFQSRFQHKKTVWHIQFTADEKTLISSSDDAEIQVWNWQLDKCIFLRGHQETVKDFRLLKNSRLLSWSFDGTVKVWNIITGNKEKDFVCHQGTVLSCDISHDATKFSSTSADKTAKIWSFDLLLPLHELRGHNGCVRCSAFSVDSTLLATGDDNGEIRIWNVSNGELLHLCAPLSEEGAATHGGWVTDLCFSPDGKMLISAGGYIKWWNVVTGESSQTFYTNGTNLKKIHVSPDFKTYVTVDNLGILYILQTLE", "type": "functional"}, "[4]": {"test_system": "Streptococcus sp. 'group A'", "assay": "Streptococcus pyogenes SK(-)GAS viability under kanamycin – luminescence, BacTiterGlo, confirmation, counter-screen for streptokinase expression inhibitor project, dose response (AID 1900)", "type": "functional, organism-based"}, "Streptococcus": {"test_system": "Streptococcus", "assay": "GAS UMAA2166 growth inhibition – luminescence, BacTiterGlo, counter-screen for streptokinase expression inhibitor project, dose response (AID 1915);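 note: potency for reduction of bacterial viability or growth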", "type": "functional, organism-based"}, "[5]": {"target": "T3, Mitochondrial peptide methionine sulfoxide reductase (Bos taurus, UniProt P54149)", "T3 sequence (P54149 whole entry)": "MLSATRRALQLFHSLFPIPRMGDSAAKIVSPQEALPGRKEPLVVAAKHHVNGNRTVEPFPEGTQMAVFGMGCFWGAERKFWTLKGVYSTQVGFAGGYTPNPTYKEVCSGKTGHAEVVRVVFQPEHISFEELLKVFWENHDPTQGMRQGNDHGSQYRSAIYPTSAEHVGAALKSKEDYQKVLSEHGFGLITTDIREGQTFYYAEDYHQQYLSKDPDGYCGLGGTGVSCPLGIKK", "type": "functional"}, "Protein RecA": {"target": "T4, Protein RecA (Mycobacterium tuberculosis, UniProt P9WHJ3)", "T4 sequence (P9WHJ3 whole entry)": "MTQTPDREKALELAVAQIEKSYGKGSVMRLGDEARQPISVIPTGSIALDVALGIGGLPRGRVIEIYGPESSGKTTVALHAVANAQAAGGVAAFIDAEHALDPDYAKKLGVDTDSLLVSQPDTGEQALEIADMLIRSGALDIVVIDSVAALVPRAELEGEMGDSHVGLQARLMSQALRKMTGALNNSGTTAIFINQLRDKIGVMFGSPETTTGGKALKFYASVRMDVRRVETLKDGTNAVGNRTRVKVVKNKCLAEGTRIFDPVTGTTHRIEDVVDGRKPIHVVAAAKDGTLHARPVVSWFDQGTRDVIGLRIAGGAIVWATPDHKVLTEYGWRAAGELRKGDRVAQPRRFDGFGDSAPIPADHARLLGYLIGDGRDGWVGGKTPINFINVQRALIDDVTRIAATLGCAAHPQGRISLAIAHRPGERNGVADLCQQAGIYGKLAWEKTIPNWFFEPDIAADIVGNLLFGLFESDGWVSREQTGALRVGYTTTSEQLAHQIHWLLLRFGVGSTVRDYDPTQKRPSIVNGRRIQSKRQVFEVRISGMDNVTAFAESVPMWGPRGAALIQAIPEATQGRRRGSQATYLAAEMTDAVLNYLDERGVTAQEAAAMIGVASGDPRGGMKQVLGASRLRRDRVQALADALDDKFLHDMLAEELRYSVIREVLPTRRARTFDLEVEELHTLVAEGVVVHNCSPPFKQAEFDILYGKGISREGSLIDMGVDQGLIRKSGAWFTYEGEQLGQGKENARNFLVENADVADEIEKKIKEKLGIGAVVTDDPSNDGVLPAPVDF", "assay": "Fluorescence Cell-Free Homogeneous Dose Retest to Identify Inhibitors of RecA-Intein Splicing Activity. [Related pubchem assays (depositor defined):AID2097, AID2223, AID489010, AID492950]", "type": "functional"}, "[6]": {"target": "T5, Nuclear receptor subfamily 0 group B member 1 (Homo sapiens, UniProt P51843)", "T5 sequence (P51843 whole entry)": "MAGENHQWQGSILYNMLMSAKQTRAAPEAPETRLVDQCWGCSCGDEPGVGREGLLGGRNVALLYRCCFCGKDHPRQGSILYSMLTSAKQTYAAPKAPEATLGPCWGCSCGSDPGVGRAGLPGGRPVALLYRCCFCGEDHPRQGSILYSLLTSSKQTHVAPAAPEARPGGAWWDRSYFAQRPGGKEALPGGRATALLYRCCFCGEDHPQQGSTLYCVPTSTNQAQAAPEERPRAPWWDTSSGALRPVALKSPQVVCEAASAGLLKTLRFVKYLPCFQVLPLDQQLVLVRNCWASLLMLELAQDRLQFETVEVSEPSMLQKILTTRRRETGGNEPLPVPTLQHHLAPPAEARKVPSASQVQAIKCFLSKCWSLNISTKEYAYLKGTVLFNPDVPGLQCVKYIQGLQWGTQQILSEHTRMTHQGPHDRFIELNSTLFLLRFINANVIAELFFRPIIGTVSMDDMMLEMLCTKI", "assay": "Luminescence-based cell-based high throughput dose response assay for inhibitors of the orphan nuclear receptor subfamily 0, group B, member 1 (DAX1; NR0B1). [Related pubchem assays (depositor defined):AID504766, AID504790]", "type": "functional"}, "HEK293": {"test_system": "HEK293", "assay": "cells", "type": "functional, cell-based", "details": "Homo sapiens"}},
  "note": "The source made the active and inactive calls.",
  "data": [
    {"smiles": "Cn1c(CNc2nc(-c3ccccc3)cs2)nnc1SCC(=O)N1CCc2ccccc21", "values": [
      {"measurement": "EC50", "setting": "[1]", "value": "0.666 µM (active)"}
    ]},
    {"smiles": "Cc1[nH]c2ccccc2c1C(C#N)(C#N)C1C(=O)c2ccccc2C1=O", "values": [
      {"measurement": "EC50", "setting": "Streptokinase A", "value": "> 150 µM (not active)"},
      {"measurement": "CC50", "setting": "Vero", "value": "> 40 µM (active)"},
      {"measurement": "AC50", "setting": "[2]", "value": "> 120 µM (inactive)"},
      {"measurement": "IC50", "setting": "[3]", "value": "> 100 µM (inactive)"},
      {"measurement": "EC50", "setting": "[4]", "value": "8.49 µM (active)"},
      {"measurement": "EC50", "setting": "Streptococcus", "value": "> 150 µM (not active)"},
      {"measurement": "IC50", "setting": "[5]", "value": "12.1 µM (inactive)"},
      {"measurement": "EC50", "setting": "Protein RecA", "value": "0.297 µM (active)"}
    ]},
    {"smiles": "O=C(NC1=NCCS1)c1cccc(Br)c1", "values": [
      {"measurement": "IC50", "setting": "[6]", "value": "> 67.5 µM (inactive)"},
      {"measurement": "IC50", "setting": "HEK293", "value": "> 67.5 µM (inactive)"}
    ]},
    {"smiles": "C(=N\\Nc1nc2ccccc2[nH]1)/c1ccc2c(c1)OCO2", "values": [
      {"measurement": "IC50", "setting": "[6]", "value": "> 67.5 µM (inactive)"},
      {"measurement": "IC50", "setting": "HEK293", "value": "> 67.5 µM (inactive)"}
    ]}
  ]
}
